Measurements: patent publication US8232313B2 (Georgia Health Sciences University, priority 2003, dated 2012)
Entries after “also recorded” stand apart in the source; their conditions may differ.

Tests used:
B16F10 melanomas = assay: Established B16F10 melanoma in mice, 1MT with radiation or cyclophosphamide; format: in vivo, mouse
Method: FIGS. 11A-11D. Administration of 1-MT enhances immune-mediated host anti-tumor effect when administered with radiation or cyclophosphamide. Mice were injected subcutaneously (SQ) with 4×10^4 B16F10 cells. […] Control mice received vehicle pellets without drug.
Not unexpected, given that the tumor had already been allowed to create tolerance in the host.

[1] = tested on: Lewis Lung carcinoma (LLC); conditions: administration of 1-MT; cited from earlier work
IDO [2] = assay: Recall MLR of LN cells from recipients of TDLN DCs, 1MT added to the MLR; conditions: responders from recipients of TDLN DCs
Method: Inguinal LN cells from recipient mice were assayed for functional responsiveness using MLRs stimulated by irradiated C57BL/6 (H-2K^b-positive) splenocytes.

[3] = Pilot tissue biodistribution of D and L isomers after DL racemic infusion; format: in vivo, Mice; conditions: DL racemic 10 mg/day, 72 hour infusion
From the text: The results noted with spleen are particularly relevant because it is a lymphoid organ, and thus likely to be similar to tumor-draining lymph nodes.

[4] = Comparative plasma pharmacokinetics of the stereoisomers of 1-MT; format: in vivo, mice; conditions: for time to peak plasma concentrations: after PO administration, 50 mg/kg
Method: Comparative pharmacokinetic studies were initiated to characterize the in vivo disposition of the stereoisomers of 1-MT when administered by different routes, to determine the oral bioavailability, and to define the plasma concentrations associated with effective dosing regimens. Studies were conducted in conventional mice after IV, PO and SC doses of 50 mg/kg, and IP doses of 25 mg/kg, 50 mg/kg, and 100 mg/kg. In addition, plasma concentrations of 1-MT were determined in nude mice with implanted timed-release pellets designed to release the DL isomer for 7 days, and the D isomer for 14 days.

IDO [5] = target: IDO (Mus musculus, UniProt P28776); assay: MLR with sorted tumor-draining LN cells (pDCs) as stimulators and BM3 responder T cells; conditions: 250 uM
IDO (Mus musculus, UniProt P28776), sequence (P28776 whole entry): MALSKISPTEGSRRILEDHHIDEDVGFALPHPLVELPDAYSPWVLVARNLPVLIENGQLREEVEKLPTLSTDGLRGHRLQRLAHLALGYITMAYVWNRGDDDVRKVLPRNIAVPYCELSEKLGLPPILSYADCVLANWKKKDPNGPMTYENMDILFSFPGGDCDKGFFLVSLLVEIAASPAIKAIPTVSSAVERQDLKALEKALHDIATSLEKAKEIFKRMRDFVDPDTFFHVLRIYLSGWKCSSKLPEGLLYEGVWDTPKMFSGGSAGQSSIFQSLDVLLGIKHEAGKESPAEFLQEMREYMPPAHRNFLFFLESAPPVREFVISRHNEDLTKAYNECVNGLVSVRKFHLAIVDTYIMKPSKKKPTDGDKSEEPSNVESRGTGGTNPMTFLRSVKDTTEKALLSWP
Method: T cell activation in MLR. BM3 responder T cells were prepared from spleen by nylon-wool enrichment. Stimulators (sorted DCs or unfractionated TDLN) were mixed with 1×10^5 BM3 responder cells in 200 ul IMDM at the ratios shown in each figure. After 3 days, proliferation was measured by 4-hour thymidine incorporation assay.
MLRs were thus “two-way” reactions. However, the small number of sorted DCs used as stimulators contributed negligible proliferation compared to the large population of TCR-transgenic responder cells. Since the relevant readout was dominant suppression, the two-way MLR design presented no problem in interpretation.
Pooled draining LN cells (4 nodes) were stained and fractionated by 4-color MoFlo cell sorting for the two populations shown in the schematic of FIG. 5B. All other cells were collected in a third fraction. Each fraction was then used as stimulators in MLRs, using 50,000 BM3 T cells as responders. The number of stimulators used in each MLR was adjusted to be the same as would have been present in 50,000 cells of the original LN preparation, based on the measured percentage of each sorted fraction. Thus, 500 cells of the sorted B220^+ CD11c^+ fraction were added per well, and 1500 cells of the CD25^+ CD4^+ fraction, while 48,000 cells of the “all other” fraction were used.

[6] = target: indoleamine 2,3-dioxygenase (IDO) (Homo sapiens, UniProt P14902); assay: Allogeneic mixed-leukocyte reaction (MLR) with IDO-expressing human DCs, T cell proliferation by thymidine incorporation; conditions: 250 uM in culture medium
indoleamine 2,3-dioxygenase (IDO), sequence (P14902 whole entry): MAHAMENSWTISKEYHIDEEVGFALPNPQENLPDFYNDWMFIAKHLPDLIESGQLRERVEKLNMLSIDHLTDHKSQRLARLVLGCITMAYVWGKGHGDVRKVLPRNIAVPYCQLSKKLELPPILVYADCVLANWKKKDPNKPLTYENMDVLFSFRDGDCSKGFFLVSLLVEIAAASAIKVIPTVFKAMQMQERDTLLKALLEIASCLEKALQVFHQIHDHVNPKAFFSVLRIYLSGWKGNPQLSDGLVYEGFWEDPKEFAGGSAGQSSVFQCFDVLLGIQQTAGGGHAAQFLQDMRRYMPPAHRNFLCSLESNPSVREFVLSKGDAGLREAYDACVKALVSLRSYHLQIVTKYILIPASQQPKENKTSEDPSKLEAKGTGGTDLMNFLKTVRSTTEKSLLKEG
Method: After five days, proliferation was measured by four hour thymidine incorporation assay. “V”-bottom culture wells (Nunc) were used in MLR assays to maximize cell-cell contact.
DCs were used as stimulators in allogeneic mixed-leukocyte reactions (MLRs), with allogeneic lymphocytes as responder cells.

Cn1cc(C[C@H](N)C(=O)O)c2ccccc21 (racemic) [1MT, 1-methyl-tryptophan]
tumor growth, 1MT with total-body radiation (B16F10 melanomas; DL racemic 20 mg/day plus 500 cGy single dose): significantly reduce tumor growth | tumor growth, 1MT with cyclophosphamide (B16F10 melanomas; DL racemic 20 mg/day plus cyclophosphamide 150 mg/kg x 1 dose): significantly reduce tumor growth | effect of 1MT alone on established tumor (B16F10 melanomas; DL racemic form, 20 mg per mouse per day, SQ pellets, from day 7): no effect | effect of 1MT over cyclophosphamide alone in RAG1-knockout hosts (B16F10 melanomas; immunodeficient (RAG1-knockout) hosts): no enhancing effect | effect of 1MT alone, replicated radiation studies (B16F10 melanomas; replicate of FIG. 11A design): no effect | tumor outgrowth [1]: significantly delayed | effect of 1MT on suppression in recall MLRs (IDO [2]): no effect; also recorded: not restored

Cn1cc(C[C@@H](N)C(=O)O)c2ccccc21 [1-methyl-D-tryptophan]
distribution into muscle, D and L isomers [3]: equivalent distribution | distribution into spleen, D and L isomers [3]: equivalent distribution | level in brain, D versus L isomer [3]: lower levels | level in plasma, D versus L isomer [3]: lower levels | accumulation in liver, D versus L isomer ([3]; SQ pellets, initial results): at least equal, and possibly preferential, accumulation | time to peak plasma concentrations [4]: 2 h | apparent volume of distribution ([4]; relative to L isomer): relatively greater | effect of combination with radiation versus radiation alone, replicated studies (B16F10 melanomas; replicate of FIG. 11A design): enhanced effect over radiation alone

Cn1cc(C[C@H](N)C(=O)O)c2ccccc21 [L 1-MT, reference compound]
time to peak plasma concentrations [4]: 2 h

N[C@@H](Cc1c[nH]c2ccccc12)C(=O)O [L-tryptophan]
suppression by pDCs with excess L-tryptophan (IDO [5]; 10x): abrogated; also recorded: abrogates suppression | effect of 10x L-tryptophan with pDCs from IDO-knockout hosts (IDO [5]; IDO-KO): no effect | DC-mediated inhibition of T cell proliferation on addition of supra-physiologic tryptophan [6]: completely reversed
